This is an account of results in patent US20130165464A1, “HETEROARYLS AND USES THEREOF” (MILLENNIUM PHARMACEUTICALS, INC., priority 2011, published 2013).

In the test the target is T1, VPS34 (Homo sapiens, UniProt Q8NEB9).
T1 construct: GST (N); host or cells: SF9 insect cells (baculovirus)
Briefly: Human VPS34 enzyme assay (Adapta TR-FRET). The format is biochemical. As to conditions: for inhibition at 1.11 µM: 1 h, at a 1.11 μM concentration, read-out: VPS34 Percent Inhibition. As for the experimental part: VPS34 (accession number GB:BCO33004) was cloned into pDEST20-Thombin as N-terminal GST tagged fusion proteins using the Gateway system (Invitrogen, catalog#11804-013). The sequences were verified before recombinant protein expression using the Baculovirus Expression System with Gateway® Technology.
For expression VPS34 was infected at 1MOI in SF9 cells and harvested 72 hours post infection.
For purification, VPS34 is purified by Glutathione Sepharose 4 Fast Flow (GE Healthcare #17-5132-03) followed by HiTrap Q (GE Healthcare #17-1153-01).
Human VPS34 Enzyme Assay Method
100 nL compounds in DMSO are added to wells of a 384 well microtitre plate (Greiner 780076). At room temperature: 5 ul VPS34 reaction buffer (Invitrogen Assay Buffer Q (diluted 1 in 5 with nanopure water) plus 2 mM DTT and 2 mM MnCl2) containing ATP (20 uM, Promega) and 200 uM PI-PS substrate (Invitrogen PV5122) is added followed immediately by 5 ul VPS34 reaction buffer (as above) containing VPS34 (5 nM, Millennium Protein Sciences Group) and the mixture is incubated with shaking at room temperature for 1 hour. Then 5 ul VPS34 stop-detect mix (as per Invitrogen Adapta Assay kit (PV5009) instructions (contains kinase quench buffer, TR-FRET buffer, Adapta Eu anti-ADP antibody and Alexa Fluor 647 ADP tracer)) is added to quench the reaction. The plates are then incubated for 30 minutes at room temperature with shaking and then read on a BMG PheraStar Plus reader.
For the assay methods described above, test compound percent inhibition, at various concentrations, is calculated relative to control (DMSO and EDTA) treated samples. Compound concentration versus percent inhibition curves are fitted to generate IC50 values. One skilled in the art will appreciate that the values generated either as percentage inhibition at a single concentration or IC50 values are subject to experimental variation.
(TR-FRET usually uses a lanthanide donor and a delayed reading to cut background.)

Structures are written as SMILES.

T1 sequence (Q8NEB9 whole entry): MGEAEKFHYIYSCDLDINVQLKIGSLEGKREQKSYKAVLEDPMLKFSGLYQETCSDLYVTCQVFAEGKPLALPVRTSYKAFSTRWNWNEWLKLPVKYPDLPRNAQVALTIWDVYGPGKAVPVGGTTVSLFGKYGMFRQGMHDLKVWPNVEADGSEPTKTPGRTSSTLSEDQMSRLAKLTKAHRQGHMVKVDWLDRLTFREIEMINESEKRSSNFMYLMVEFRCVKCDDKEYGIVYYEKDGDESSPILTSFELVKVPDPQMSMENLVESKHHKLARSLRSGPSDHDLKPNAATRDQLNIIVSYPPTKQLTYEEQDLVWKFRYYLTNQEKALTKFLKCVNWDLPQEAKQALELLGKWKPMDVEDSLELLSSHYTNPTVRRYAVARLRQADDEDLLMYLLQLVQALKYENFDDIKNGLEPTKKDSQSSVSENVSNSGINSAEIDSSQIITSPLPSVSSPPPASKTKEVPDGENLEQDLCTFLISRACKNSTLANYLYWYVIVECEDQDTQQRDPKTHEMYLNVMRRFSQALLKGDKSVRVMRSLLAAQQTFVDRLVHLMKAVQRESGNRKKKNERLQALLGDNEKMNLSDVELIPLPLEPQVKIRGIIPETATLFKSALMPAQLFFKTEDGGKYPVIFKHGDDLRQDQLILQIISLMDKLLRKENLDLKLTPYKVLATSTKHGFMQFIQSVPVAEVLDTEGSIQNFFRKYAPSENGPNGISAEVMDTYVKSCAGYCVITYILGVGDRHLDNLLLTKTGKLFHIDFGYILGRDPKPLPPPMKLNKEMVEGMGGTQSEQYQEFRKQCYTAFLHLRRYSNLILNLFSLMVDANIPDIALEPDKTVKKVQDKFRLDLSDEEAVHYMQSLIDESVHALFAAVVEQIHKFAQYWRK

Broadly, the inhibition is the percentage by which the read-out fell short of the control. With `CC(=O)Nc1cc(-n2cc(-c3nc[nH]n3)c(-c3ccccc3S(C)(=O)=O)c2)ccn1` [I-38, N-(4-{3-[2-(methylsulfonyl)phenyl]-4-(1H-1,2,4-triazol-3-yl)-1H-pyrrol-1-yl}pyridin-2-yl)acetamide], the inhibition at 1.11 µM is greater than 99%.
Usually IC50 stands for the concentration that gives 50% inhibition. Higher therefore signals weaker potency in that assay. In the case of `CC(=O)Nc1cc(-n2cc(-c3nnc[nH]3)c(-c3ccc(Cl)cc3Cl)n2)c(C)cn1` [I-39, N-{4-[3-(2,4-dichlorophenyl)-4-(4H-1,2,4-triazol-3-yl)-1H-pyrazol-1-yl]-5-methylpyridin-2-yl}acetamide], the IC50 was less than 50 nM and the inhibition at 1.11 µM is greater than 99%.
In the case of `Cc1cnc(NC(=O)C2CC2)cc1-n1cc(C(N)=O)c(-c2ccccc2Cl)c1` [I-40, 4-(2-chlorophenyl)-1-{2-[(cyclopropylcarbonyl)amino]-5-methylpyridin-4-yl}-1H-pyrrole-3-carboxamide], the IC50 is less than 50 nM and the inhibition at 1.11 µM was greater than 99%.
`CC(=O)Nc1cc(-n2cc(C(N)=O)c(-c3ccccc3Cl)c2)c(C)cn1` [I-41, 1-(2-acetamido-5-methylpyridin-4-yl)-4-(2-chlorophenyl)-1H-pyrrole-3-carboxamide]: the inhibition at 1.11 µM is 78%.
As to `CC(=O)Nc1cc(-n2cc(-c3nc[nH]n3)c(-c3cc(CN(C)C)ccc3Cl)n2)c(C)cn1` [I-42, N-{4-[3-{2-chloro-5-[(dimethylamino)methyl]phenyl}-4-(1H-1,2,4-triazol-3-yl)-1H-pyrazol-1-yl]-5-methylpyridin-2-yl}acetamide], the IC50 was less than 50 nM and the inhibition at 1.11 µM was greater than 99%.
For `NC(=O)c1cn(-c2ccnc(NCCc3ccc(O)cc3)n2)nc1-c1ccccc1Cl` [I-43, 3-(2-chlorophenyl)-1-(2-{[2-(4-hydroxyphenyl)ethyl]amino}pyrimidin-4-yl)-1H-pyrazole-4-carboxamide], the half-inhibitory concentration (IC50) lay in the range of 1000 to 5000 nM and the inhibition at 1.11 µM was 27%.
The matching figures for `CC(=O)Nc1cc(-n2cc(-c3nc[nH]n3)c(-c3ccccc3Cl)n2)c(F)cn1` [I-44, N-{4-[3-(2-chlorophenyl)-4-(1H-1,2,4-triazol-3-yl)-1H-pyrazol-1-yl]-5-fluoropyridin-2-yl}acetamide]: less than 50 nM and greater than 99%.
`COC(=O)Nc1cc(-n2cc(-c3nc[nH]n3)c(-c3ccccc3Cl)n2)c(C)cn1` [I-45, methyl {4-[3-(2-chlorophenyl)-4-(4H-1,2,4-triazol-3-yl)-1H-pyrazol-1-yl]-5-methylpyridin-2-yl}carbamate]: the inhibition at 1.11 µM is greater than 99%.
For the compound `Cc1cnc(NC(=O)C2CC2)cc1-n1cc(-c2nc[nH]n2)c(-c2ccccc2Cl)n1` [I-46, N-{4-[3-(2-chlorophenyl)-4-(1H-1,2,4-triazol-3-yl)-1H-pyrazol-1-yl]-5-methylpyridin-2-yl}cyclopropanecarboxamide], the IC50 is less than 50 nM and the inhibition at 1.11 µM is greater than 99%.
`CC(=O)Nc1cc(-n2cc(C(N)=O)c(-c3ccccc3S(C)(=O)=O)c2)ccn1` [I-47, 1-(2-acetamidopyridin-4-yl)-4-[2-(methylsulfonyl)phenyl]-1H-pyrrole-3-carboxamide]: the IC50 lay in the range of 150 to 1000 nM and the inhibition at 1.11 µM is 64%.
With `CC(=O)Nc1cc(-n2cc(-c3nc[nH]n3)c(-c3ccccc3C(F)(F)F)n2)c(C)cn1` [I-48, N-(5-methyl-4-{4-(1H-1,2,4-triazol-3-yl)-3-[2-(trifluoromethyl)phenyl]-1H-pyrazol-1-yl}pyridin-2-yl)acetamide], the inhibition at 1.11 µM was greater than 99%.
Turning to `COc1ccccc1-c1nn(-c2cc(NC(C)=O)ncc2C)cc1-c1nc[nH]n1` [I-49, N-{4-[3-(2-methoxyphenyl)-4-(1H-1,2,4-triazol-3-yl)-1H-pyrazol-1-yl]-5-methylpyridin-2-yl}acetamide], the IC50 is 150 to 1000 nM and the inhibition at 1.11 µM was determined as 56%.
The matching figures for `CCC(=O)Nc1cc(-n2cc(-c3nc[nH]n3)c(-c3ccccc3Cl)c2)c(C)cn1` [I-50, N-{4-[3-(2-chlorophenyl)-4-(1H-1,2,4-triazol-3-yl)-1H-pyrrol-1-yl]-5-methylpyridin-2-yl}propanamide]: less than 50 nM and greater than 99%.
As to `COC(=O)Nc1cc(-n2cc(C(N)=O)c(-c3ccccc3Cl)c2)c(Cl)cn1` [I-51, methyl {4-[3-carbamoyl-4-(2-chlorophenyl)-1H-pyrrol-1-yl]-5-chloropyridin-2-yl}carbamate], the inhibition at 1.11 µM was determined as 85%.
On to `CC(=O)Nc1cc(-n2cc(-c3nc[nH]n3)c(-c3ccccc3C#N)n2)c(C)cn1` [I-52, N-{4-[3-(2-cyanophenyl)-4-(1H-1,2,4-triazol-3-yl)-1H-pyrazol-1-yl]-5-methylpyridin-2-yl}acetamide], for which the inhibition at 1.11 µM is greater than 99%.
On to `CC(=O)Nc1cc(-n2cc(-c3ccccc3)c(-c3nnc[nH]3)c2)c(C)cn1` [I-53, N-{5-methyl-4-[3-phenyl-4-(4H-1,2,4-triazol-3-yl)-1H-pyrrol-1-yl]pyridin-2-yl}acetamide], for which the IC50 was in the range of 150 to 1000 nM and the inhibition at 1.11 µM stood at 81%.
Consider `COCCOC(=O)Nc1cc(-n2cc(C(N)=O)c(-c3ccccc3Cl)c2)c(C)cn1` [I-54, 2-methoxyethyl {4-[3-carbamoyl-4-(2-chlorophenyl)-1H-pyrrol-1-yl]-5-methylpyridin-2-yl}carbamate], for which the inhibition at 1.11 µM was greater than 99%.
As for `COC(=O)Nc1cc(-n2cc(-c3nc[nH]n3)c(-c3ccccc3Cl)c2)c(C)cn1` [I-55, methyl {4-[3-(2-chlorophenyl)-4-(1H-1,2,4-triazol-3-yl)-1H-pyrrol-1-yl]-5-methylpyridin-2-yl}carbamate], the IC50 was less than 50 nM and the inhibition at 1.11 µM was greater than 99%.
For `O=C(Nc1cc(-n2cc(-c3nc[nH]n3)c(-c3ccccc3Cl)n2)c(F)cn1)C1CC1` [I-56, N-{4-[3-(2-chlorophenyl)-4-(1H-1,2,4-triazol-3-yl)-1H-pyrazol-1-yl]-5-fluoropyridin-2-yl}cyclopropanecarboxamide], the IC50 is less than 50 nM and the inhibition at 1.11 µM was greater than 99%.
The like results for `CCc1ccccc1-c1nn(-c2cc(NC(C)=O)ncc2C)cc1-c1nc[nH]n1` [I-57, N-{4-[3-(2-ethylphenyl)-4-(1H-1,2,4-triazol-3-yl)-1H-pyrazol-1-yl]-5-methylpyridin-2-yl}acetamide] were, in that order, 150 to 1000 nM and 94%.
Regarding `CCN(CC)Cc1ccc(Cl)c(-c2nn(-c3cc(NC(C)=O)ncc3C)cc2-c2nc[nH]n2)c1` [I-58, N-{4-[3-{2-chloro-5-[(diethylamino)methyl]phenyl}-4-(1H-1,2,4-triazol-3-yl)-1H-pyrazol-1-yl]-5-methylpyridin-2-yl}acetamide], the inhibition at 1.11 µM is greater than 99%.
For `CC(=O)Nc1cc(-n2cc(-c3nc[nH]n3)c(-c3ccccc3SC(F)(F)F)n2)c(C)cn1` [I-59, N-{5-methyl-4-[4-(1H-1,2,4-triazol-3-yl)-3-{2-[(trifluoromethyl)sulfanyl]phenyl}-1H-pyrazol-1-yl]pyridin-2-yl}acetamide], the IC50 was 150 to 1000 nM and the inhibition at 1.11 µM turned out to be 75%.
The matching figures for `Cc1cnc(NC(=O)C2CC2)cc1-n1cc(-c2ncc[nH]2)c(-c2ccccc2Cl)n1` [I-60, N-{4-[3-(2-chlorophenyl)-4-(1H-imidazol-2-yl)-1H-pyrazol-1-yl]-5-methylpyridin-2-yl}cyclopropanecarboxamide]: less than 50 nM and greater than 99%.
For the compound `COC(=O)Nc1cc(-n2cc(-c3nc[nH]n3)c(-c3cc(CN4CCCC4)ccc3Cl)n2)c(C)cn1` [I-61, methyl (4-{3-[2-chloro-5-(pyrrolidin-1-ylmethyl)phenyl]-4-(1H-1,2,4-triazol-3-yl)-1H-pyrazol-1-yl}-5-methylpyridin-2-yl)carbamate], the inhibition at 1.11 µM is greater than 99%.
Turning to `CC(=O)Nc1cc(-n2cc(-c3nnc[nH]3)c(I)n2)c(C)cn1` [I-62, N-{4-[3-iodo-4-(1H-1,2,4-triazol-3-yl)-1H-pyrazol-1-yl]-5-methylpyridin-2-yl}acetamide], the IC50 lay in the range of 150 to 1000 nM and the inhibition at 1.11 µM is 59%.
With `Cc1cnc(NC(=O)C2CC2)cc1-n1cc(CO)c(-c2ccccc2Cl)n1` [I-63, N-{4-[3-(2-chlorophenyl)-4-(hydroxymethyl)-1H-pyrazol-1-yl]-5-methylpyridin-2-yl}cyclopropanecarboxamide], the IC50 fell in the range of 150 to 1000 nM and the inhibition at 1.11 µM was 62%.
The matching figures for `COC(=O)Nc1cc(-n2cc(-c3ncc[nH]3)c(-c3ccccc3Cl)n2)c(C)cn1` [I-64, methyl {4-[3-(2-chlorophenyl)-4-(1H-imidazol-2-yl)-1H-pyrazol-1-yl]-5-methylpyridin-2-yl}carbamate]: less than 50 nM and greater than 99%.
Regarding `CC(=O)Nc1cc(-n2cc(-c3nc[nH]n3)c(-c3ccc(F)cc3Cl)n2)c(C)cn1` [I-65, N-{4-[3-(2-chloro-4-fluorophenyl)-4-(1H-1,2,4-triazol-3-yl)-1H-pyrazol-1-yl]-5-methylpyridin-2-yl}acetamide], the inhibition at 1.11 µM is greater than 99%.
